Experimental data as given in ChEMBL document CHEMBL1201862, “PubChem BioAssay data set” (2004).
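Tested at 5 concentrations; 48 h exposure; 96-well plates; endpoints linearly interpolated, else capped at highest concentration. At the GI50, growth is halved.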 The source made the active and inactive calls. No stated cut-off is given here; in the data, active = GI50 up to about 1.1 µM and inactive = higher.

Assays:
Experiment in all cases: inhibition of tumour cell growth, NCI panel, 48 h
SK-MEL-2 = system: SK-MEL-2
RXF 393 = system: RXF 393
XF498 = system: XF498
SF-295 = system: SF-295
SR = system: SR
Malme-3M = system: Malme-3M
NCI-H23 = system: NCI-H23
HOP-62 = system: HOP-62
HT-29 = system: HT-29
MOLT-4 = system: MOLT-4
A498 = system: A498
UACC-62 = system: UACC-62
LOX IMVI = system: LOX IMVI
786-0 = system: 786-0
OVCAR-3 = system: OVCAR-3
SK-OV-3 = system: SK-OV-3

| Compound | GI50 (SK-MEL-2) | GI50 (RXF 393) | GI50 (XF498) | GI50 (SF-295) | GI50 (SR) | GI50 (Malme-3M) | GI50 (NCI-H23) | GI50 (HOP-62) | GI50 (HT-29) | GI50 (MOLT-4) | GI50 (A498) | GI50 (UACC-62) | GI50 (LOX IMVI) | GI50 (786-0) | GI50 (OVCAR-3) | GI50 (SK-OV-3) |
| --- | --- | --- | --- | --- | --- | --- | --- | --- | --- | --- | --- | --- | --- | --- | --- | --- |
| Cc1c[nH]c2c1C13CC1CN(C(=O)c1cc4cc(NC(=O)c5cc6ccccc6o5)ccc4[nH]1)C3=CC2=O (stereo not given) | < 0.001 µM (active) | < 0.001 µM (active) | < 0.001 µM (active) | < 0.001 µM (active) | < 0.001 µM (active) | < 0.001 µM (active) | < 0.001 µM (active) | < 0.001 µM (active) | < 0.001 µM (active) | < 0.001 µM (active) | < 0.001 µM (active) | < 0.001 µM (active) | < 0.001 µM (active) | < 0.001 µM (active) |  |  |
| Oc1ccc2occ3c2c1CCC3 |  | 75.2 µM (inactive) | 67 µM (inactive) | > 100 µM (inactive) |  |  | > 100 µM (inactive) | > 100 µM (inactive) | > 100 µM (inactive) | > 100 µM (inactive) | > 100 µM (inactive) | 95.9 µM (inactive) | > 100 µM (inactive) | > 100 µM (inactive) | 64.1 µM (inactive) | > 100 µM (inactive) |
| NC(=O)c1c([N+](=O)[O-])cc(C(F)(F)F)cc1[N+](=O)[O-] |  | > 100 µM (inactive) | > 100 µM (inactive) | > 100 µM (inactive) | > 100 µM (inactive) | 24.4 µM (inactive) | 29.8 µM (inactive) | > 100 µM (inactive) | 41.7 µM (inactive) | > 100 µM (inactive) | > 100 µM (inactive) | 35.1 µM (inactive) | 51.2 µM (inactive) | > 100 µM (inactive) | 24.9 µM (inactive) | > 100 µM (inactive) |
| COc1ccc(/C(=C/n2ccnc2)C(=O)c2ccc(OC)c(OC)c2)cc1 | > 100 µM (inactive) |  | > 100 µM (inactive) |  | > 100 µM (inactive) | > 100 µM (inactive) | > 100 µM (inactive) | > 100 µM (inactive) |  | > 100 µM (inactive) | > 100 µM (inactive) | 39.3 µM (inactive) | > 100 µM (inactive) | > 100 µM (inactive) | > 100 µM (inactive) |  |
| Cc1ccc(N2C(=O)C3C=CC(n4[nH]c(=O)n(Cc5ccccc5)c4=O)CC3C2=O)cc1 (stereo not given) | > 100 µM (inactive) | > 100 µM (inactive) | > 100 µM (inactive) | > 100 µM (inactive) | > 100 µM (inactive) | > 100 µM (inactive) | > 100 µM (inactive) | > 100 µM (inactive) | > 100 µM (inactive) | > 100 µM (inactive) | > 100 µM (inactive) | > 100 µM (inactive) | > 100 µM (inactive) | > 100 µM (inactive) | > 100 µM (inactive) | > 100 µM (inactive) |
| C=CCN1/C(=C2\SC(=S)N(c3ccc(C)cc3)C2=O)Sc2c1ncn(C)c2=O | > 100 µM (inactive) |  | 73.5 µM (inactive) | 90.8 µM (inactive) | 84.7 µM (inactive) |  | > 100 µM (inactive) | 69.2 µM (inactive) | > 100 µM (inactive) | > 100 µM (inactive) | 51.1 µM (inactive) | > 100 µM (inactive) | > 100 µM (inactive) | 71.1 µM (inactive) |  | > 100 µM (inactive) |
| O=C1C(c2ccccc2)=C(c2ccccc2)C(c2ccc(Sc3ccc(C4=C(c5ccccc5)C(=O)C(c5ccccc5)=C4c4ccccc4)cc3)cc2)=C1c1ccccc1 | > 100 µM (inactive) | 64.9 µM (inactive) | > 100 µM (inactive) | > 100 µM (inactive) | > 100 µM (inactive) | > 100 µM (inactive) | > 100 µM (inactive) | 60.7 µM (inactive) | > 100 µM (inactive) | > 100 µM (inactive) | > 100 µM (inactive) | > 100 µM (inactive) | > 100 µM (inactive) | > 100 µM (inactive) | > 100 µM (inactive) | > 100 µM (inactive) |
| Oc1nc(-c2ccccc2)cc(-c2ccccc2O)n1 |  | 86.5 µM (inactive) | 65 µM (inactive) | > 100 µM (inactive) | > 100 µM (inactive) | > 100 µM (inactive) | > 100 µM (inactive) | 30.5 µM (inactive) | 56.6 µM (inactive) | 67 µM (inactive) | > 100 µM (inactive) | 77.3 µM (inactive) | 51.5 µM (inactive) | > 100 µM (inactive) | 98.2 µM (inactive) | > 100 µM (inactive) |
| O=c1[nH]c2ccccc2cc1C(Cl)=C(Cl)Cl | > 100 µM (inactive) | > 100 µM (inactive) | > 100 µM (inactive) | > 100 µM (inactive) | > 100 µM (inactive) | > 100 µM (inactive) | > 100 µM (inactive) | > 100 µM (inactive) | > 100 µM (inactive) | > 100 µM (inactive) | > 100 µM (inactive) | > 100 µM (inactive) | > 100 µM (inactive) | > 100 µM (inactive) | > 100 µM (inactive) | > 100 µM (inactive) |
| CCOC(=O)C1=C(Nc2ccc(Cl)c(Cl)c2)OC/C1=N\NS(=O)(=O)c1ccc(C)cc1 | 29.6 µM (inactive) | 67.9 µM (inactive) | 94 µM (inactive) | > 100 µM (inactive) |  | 67.8 µM (inactive) | 34.7 µM (inactive) | 36.7 µM (inactive) |  | 26.3 µM (inactive) | 44.4 µM (inactive) | 39.4 µM (inactive) | 9.48 µM (inactive) | > 100 µM (inactive) | 49.5 µM (inactive) | 75.7 µM (inactive) |
| Clc1ccc2c(Cl)ncnc2c1I | > 100 µM (inactive) | 42 µM (inactive) | 91.6 µM (inactive) | > 100 µM (inactive) | 31.2 µM (inactive) | > 100 µM (inactive) | > 100 µM (inactive) | > 100 µM (inactive) | > 100 µM (inactive) | 24.8 µM (inactive) |  | 63.7 µM (inactive) | > 100 µM (inactive) | > 100 µM (inactive) | > 100 µM (inactive) | > 100 µM (inactive) |
| N/C(=N\O)N/N=C/c1ccc(O)c(O)c1 | > 100 µM (inactive) | > 100 µM (inactive) | > 100 µM (inactive) | > 100 µM (inactive) | > 100 µM (inactive) | > 100 µM (inactive) | > 100 µM (inactive) | > 100 µM (inactive) | > 100 µM (inactive) | > 100 µM (inactive) | > 100 µM (inactive) | > 100 µM (inactive) | > 100 µM (inactive) | > 100 µM (inactive) | > 100 µM (inactive) | > 100 µM (inactive) |
| CCOc1ccccc1/N=N/c1c(-c2ccccc2)nn(C(=O)CC(=O)Nc2cccc(Cl)c2)c1-c1ccccc1 | > 100 µM (inactive) | 95.7 µM (inactive) | 62.4 µM (inactive) | 50.4 µM (inactive) | 61 µM (inactive) | > 100 µM (inactive) | 61.8 µM (inactive) | 72.9 µM (inactive) | 30 µM (inactive) | 51.6 µM (inactive) |  | 39.6 µM (inactive) | 35.7 µM (inactive) | 89.1 µM (inactive) | 24.7 µM (inactive) | > 100 µM (inactive) |
